In one series the test system is ER/IL-6. As to the kind of experiment: Endothelial Cell ER/IL-6 Assay, IL-6 promoter luciferase (Table 2). Particulars: ERα infected HAECT-1 cells, IL-1β; for IC50: read-out: IL6 luc IC50; for Emax: read-out: IL6 luc % Efficacy. Format: cell-based, human. Here is the method: T-175 flasks of 100% confluent HAECT-1 cells (immortalized human aortic endothelial cells) were washed with 8 ml of HBSS (HEPES buffered saline solution) and infected for fours hours with 6 ml of a 1:10 dilution of Ad5-wt-hERα virus (an adenovirus transfection vector that mediates CMV promoter driven expression of human ERα) in phenol red free Endothelial Cell Basal medium (Clonetics, San Diego, Calif., Catalog # CC-3129) containing 0.25% bovine serum albumin (EDM-BSA). After four hours, cells were washed with EDM-BSA and incubated overnight in the same medium. Following overnight incubation, cells were washed with EDM-BSA and infected for 2 hours with 6 ml of a 1:10 dilution of Ad5-3x(NFκB).Luc virus (Adenovirus luciferase expression vector driven by three repeats of the MHC NFκb sites 5′ to the thymidine kinase promoter) in EDM-BSA. After two hours, cells were washed and incubated at 34° C. for one hour. Cells were then washed, trypsinized, counted, and resuspended in 95% FBS/5% dimethylsulfoxide at a concentration of […], frozen as 1 or 5 ml aliquots in cryo-vials and stored at −150° C. Control (no ER infection) cells were processed as above without Ad5-wt-hERα virus infection.
ERα infected HAECT-1 cells or control cells were thawed, diluted 42× in warm EBM-BSA, plated into 96-well plates at 0.1 ml/well and incubated for 4 hours at 34° C. Test compounds were added to the cells at 2× stocks in EBM-BSA containing 2 ng/ml IL-1β Ad6-IL-6(1250 bp).Luc virus and plates were returned to the incubator (34° C.). After […], cells were lysed with 50 μl of Promega Cell Culture Lysis reagenet for about 5 minutes at room temperature on a shaker. After lysing, 15 μl of lysate is transferred to luminometer plates for luciferase determination. Luciferase activity is evaluated using a Perkin Elmer Victor2 1420 multilabel counter. Creatine kinase was determined from the rate of increase in A340 following addition of 100 μl of CK assay reagent (Sigma catalog no. 47-10) to the remainder of the cell lysate.
For IC50 and EC50 calculations, mean IL-6, luciferase or CK values versus log10 of the compound concentration were fitted to a four parameter logistic equation. The IC50/EC50 value, ‘Hill slope,’ upper and lower limits of the curve were iteratively estimated.

“And” between values parts separate entries of the source, which are not always exact repeats. Equal values may be shown once. Read-outs that look alike come from different tables or passages of the source.

A word on the melting point: it is the temperature of the solid-liquid transition. What is called IC50 is the point on the concentration scale where inhibition reaches its midpoint.

On to `CC(C)(C)OC(=O)C(C#N)C(c1ccccc1OC(F)(F)F)c1cccc2ccccc12` (stereo not shown), for which the melting point fell in the range of 115 to 118 °C.
In turn, `Cc1cccc(C)c1C(c1cccc2ccccc12)C(C#N)C(=O)OC(C)(C)C` (stereo not shown) displayed a melting point of 124 to 128 °C.
On to `COc1ccccc1[C@H](c1cccc2ccccc12)[C@@](C)(C#N)C(=O)N1CCC(O)(c2ccc(Br)cc2)CC1`, for which the melting point lay within 206 to 208 °C.
The same measure, in the same setting: the figure for `COc1ccccc1[C@H](c1cccc2ccccc12)[C@@](C)(C#N)C(=O)N1CCN(CC(=O)N2CCOCC2)CC1` is 201 °C; for `COc1ccccc1[C@H](c1cccc2ccccc12)[C@@](C)(C#N)C(=O)N1CCN(C(=O)c2ccco2)CC1` it is 193 °C.
On the same count and under the same terms, then `COc1ccccc1[C@H](c1cccc2ccccc12)[C@@](C)(C#N)C(=O)N1CCN(CCN2CCOCC2)CC1`, with 102 to 103 °C; and `CCOC(=O)C(C)(C#N)C(c1cccc2ccccc12)c1cccc2ccccc12` (stereo not shown), with 186 to 188 °C.
As to `COc1ccccc1[C@H](c1cccc2ccccc12)[C@@](C)(C#N)C(=O)N1CCN(c2cccc(C)c2)CC1`, the melting point was 104 to 105 °C.
The molecule `COc1cc(OC)cc(N2CCN(C(=O)[C@](C)(C#N)[C@H](c3ccccc3OC)c3cccc4ccccc34)CC2)c1` had a melting point of 186 to 188 °C.
Still for that read-out and setting: the figure for `COc1ccccc1[C@H](c1cccc2ccccc12)[C@@](C)(C#N)C(=O)N1CCN(c2cccc3c2CCC3)CC1` is 188 to 190 °C; for `COc1ccccc1[C@H](c1cccc2ccccc12)[C@@](C)(C#N)C(=O)N1CCN(c2ccc(C)c(C)c2)CC1` it is 181 to 183 °C; for `COc1ccccc1[C@H](c1cccc2ccccc12)[C@@](C)(C#N)C(=O)N1CCN(c2cccc(Cl)c2)CC1` it is 174 to 176 °C.
Regarding `COc1ccccc1[C@H](c1cccc2ccccc12)[C@@](C)(C#N)C(=O)N1CCN(c2cccc(C)c2C)CC1`, the melting point lay in the range of 194 to 195 °C.
Consider `COc1ccccc1[C@H](c1cccc2ccccc12)[C@@](C)(C#N)C(=O)N1CCN(c2ccc(Cl)cc2)CC1`, for which the melting point lay within 178 to 180 °C.
Still for that read-out and setting: the figure for `COc1ccccc1[C@H](c1cccc2ccccc12)[C@@](C)(C#N)C(=O)N1CCN(c2cccc3[nH]ccc23)CC1` is 174 to 176 °C; for `COc1ccccc1[C@H](c1cccc2ccccc12)[C@@](C)(C#N)C(=O)N1CC=C(c2ccc(Cl)cc2)CC1` it is 118 to 122 °C.
For the molecule `COc1ccccc1[C@H](c1cccc2ccccc12)[C@@](C)(C#N)C(=O)N1CCN(c2ccccc2F)CC1`, the melting point fell in the range of 145 to 148 °C.
In the case of `COc1ccccc1[C@H](c1cccc2ccccc12)[C@@](C)(C#N)C(=O)N1CCN(c2ccccc2Cl)CC1`, the melting point lay within 145 to 147 °C.
The same measure, in the same setting: the figure for `COc1cccc(N2CCN(C(=O)[C@](C)(C#N)[C@H](c3ccccc3OC)c3cccc4ccccc34)CC2)c1` is 147 to 148 °C.
As for `CC(C)(C)OC(=O)C(C#N)C(c1cccc2ccccc12)c1cccc2ccccc12` (stereo not shown), the melting point lay in the range of 156 to 157 °C.
On the same count and under the same terms, the figure for `CC(C)(C)OC(=O)[C@@](C)(C#N)[C@H](c1ccccc1OC(F)(F)F)c1cccc2ccccc12` (racemic) is 150 to 153 °C.
Consider `COC(=O)[C@@](C#N)(CCN1CCOCC1)[C@H](c1ccccc1OC)c1cccc2ccccc12` (relative stereo) [Example 147, Methyl (2S*)-2-cyano-2-[(S*)-(2-methoxyphenyl)(1-naphthyl)methyl]-4-morpholin-4-ylbutanoate], for which the IC50 with ER/IL-6 (Homo sapiens, HAECT1) was determined as 12 nM.
Still for that read-out and setting: the figure for `CCN(CC)CC[C@](C#N)(C(=O)OC)[C@H](c1ccccc1OC)c1cccc2ccccc12` (relative stereo) [Example 148, Methyl (2S*)-2-cyano-4-(diethylamino)-2-[(S*)-(2-methoxyphenyl)(1-naphthyl)methyl]butanoate] is 257 nM.
`COc1ccccc1[C@H](c1cccc2ccccc12)[C@@](C)(C#N)C(=O)N1CC=C(c2ccc(F)cc2)CC1` [Example 137, (2S)-3-[4-(4-fluorophenyl)-3,6-dihydropyridin-1(2H)-yl]-2-[(S)-(2-methoxyphenyl)(1-naphthyl)methyl]-2-methyl-3-oxopropanenitrile]: in the series on ER/IL-6 (Homo sapiens, HAECT1), the Emax amounted to 163% and the IC50 stood at 33 nM.
On the same counts, the results for `COc1ccccc1[C@H](c1cccc2ccccc12)[C@@](C)(C#N)C(=O)N1CCC(O)(c2cccc(C(F)(F)F)c2)CC1` [Example 140, (2S)-3-{4-hydroxy-4-[3-(trifluoromethyl)phenyl]piperidin-1-yl}-2-[(S)-(2-methoxyphenyl)(1-naphthyl)methyl]-2-methyl-3-oxopropanenitrile] are 125% and 324 nM.
In the same order, the values of `COCCOC[C@@](C#N)(C(=O)OC)[C@@H](c1ccccc1OC)c1cccc2ccccc12` [Example 159, Methyl (2R,3R)-2-cyano-2-[(2-methoxyethoxy)methyl]-3-(2-methoxyphenyl)-3-(1-naphthyl)propanoate] are 95% and 273 nM.
For `COc1ccccc1C(c1cnc2ccccc2c1)C(C)(C#N)C(=O)N1CCC(c2cccc(C(F)(F)F)c2)CC1` (stereo not shown) [Example 164, 3-(2-Methoxyphenyl)-2-methyl-3-quinolin-3-yl-2-({4-[3-(trifluoromethyl)phenyl]piperidin-1-yl}carbonyl)propanenitrile], in the series on ER/IL-6 (Homo sapiens, HAECT1), the Emax turned out to be 48% and the concentration for half-maximal inhibition (IC50) amounted to 32 nM.
In the case of `COCCOC[C@@](C#N)(C(=O)N1CCC(c2cccc(C(F)(F)F)c2)CC1)[C@@H](c1ccccc1OC)c1cccc2ccccc12` [Example 168, (RR,SS)-2-[(2-Methoxyethoxy)methyl]-3-(2-methoxyphenyl)-3-(1-naphthyl)-2-({4-[3-(trifluoromethyl)phenyl]piperidin-1-yl}carbonyl)propanenitrile], in the series on ER/IL-6, the “IL6 luc % Efficacy” value amounted to 68% and the IC50 stood at 37 nM.
In the same order, the values of `COCCOC[C@@](C#N)(C(=O)NCC(C)(C)C)[C@@H](c1ccccc1OC)c1cccc2ccccc12` [Example 170, (RR,SS)-2-Cyano-N-(2,2-dimethylpropyl)-2-[(2-methoxyethoxy)methyl]-3-(2-methoxyphenyl)-3-(1-naphthyl)propanamide] are 89% and 577 nM.
Take `COCCOC[C@@](C#N)(C(=O)N1CCN(c2cnccn2)CC1)[C@@H](c1ccccc1OC)c1cccc2ccccc12` [Example 171, (RR,SS)-2-[(2-methoxyethoxy)methyl]-3-(2-methoxyphenyl)-3-(1-naphthyl)-2-[(4-pyrazin-2-ylpiperazin-1-yl)carbonyl]propanenitrile]: in the series with ER/IL-6, the “IL6 luc % Efficacy” value was 54% and the IC50 was 337 nM.
On to `COc1ccccc1[C@@H](c1cccc2ccccc12)[C@@](C#N)(Cc1cccnc1)C(=O)NCC(C)(C)C` [Example 176, (RR,SS)-2-cyano-N-(2,2-dimethylpropyl)-3-(2-methoxyphenyl)-3-(1-naphthyl)-2-(pyridin-3-ylmethyl)propanamide], for which, in the series with ER/IL-6, the “IL6 luc % Efficacy” value was 71% and the IC50 is 413 nM.
For `COc1ccccc1[C@@H](c1cccc2ccccc12)[C@@](C#N)(Cc1cccnc1)C(=O)OC(C)(C)C` [Example 179, tert-Butyl (RR,SS)-2-cyano-3-(2-methoxyphenyl)-3-(1-naphthyl)-2-(pyridin-3-ylmethyl)propanoate], in the series on ER/IL-6, the “IL6 luc % Efficacy” value amounted to 128% and the IC50 is 151 nM.
Regarding `COCC(C#N)(C(=O)NC(C)(C)C)C(c1ccccc1OC)c1cccc2ccccc12` (stereo not drawn) [Example 180, (RR,SS)-N-(tert-butyl)-2-cyano-2-(methoxymethyl)-3-(2-methoxyphenyl)-3-(1-naphthyl)propanamide], in the series with ER/IL-6, the “IL6 luc % Efficacy” value turned out to be 119% and the IC50 is 200 nM.
In the same order, the values of `COC[C@@](C#N)(C(=O)N1CCN(CCN2CCOCC2)CC1)[C@@H](c1ccccc1OC)c1cccc2ccccc12` [Example 219, (RR,SS)-2-(methoxymethyl)-3-(2-methoxyphenyl)-2-{[4-(2-morpholin-4-ylethyl)piperazin-1-yl]carbonyl}-3-(1-naphthyl)propanenitrile] are 74% and 1400 nM.
Turning to `COC[C@](C#N)(C(=O)N1CCN(C2CCCCC2)CC1)[C@H](c1ccccc1OC)c1cccc2ccccc12` [Example 221, (2S,3S)-3-(4-cyclohexylpiperazin-1-yl)-2-(methoxymethyl)-2-[(2-methoxyphenyl)(1-naphthyl)methyl]-3-oxopropanenitrile], in the series on ER/IL-6, the “IL6 luc % Efficacy” value is 159% and 245% and 174%.

For the origin of these results see US20050256132A1, “Use of ER selective NF-kB inhibitors for the treatment of sepsis” (priority 2003, published 2005).
